# Reference: PubChem BioAssay (NCI)
# Where “and” joins values, the source holds several entries; their conditions need not be identical. Equal values may be shown once.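 48-hour exposure; five concentrations; linearly interpolated endpoints. Abbreviation: GI50, concentration required for 50% inhibition of growth. Definition used: TGI = concentration required for complete inhibition of growth.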
# Key:
# Assay in all cases: DTP human tumour cell line panel, 48 h
# MDA-MB-231 breast = tested on: MDA-MB-231 breast
# PC-3 prostate = tested on: PC-3 prostate
# NCI-H460 lung = tested on: NCI-H460 lung
# HCC-2998 colon = tested on: HCC-2998 colon
# MDA-N = tested on: MDA-N
# NCI-H522 lung = tested on: NCI-H522 lung
# BT-549 breast = tested on: BT-549 breast
# SF-268 CNS = tested on: SF-268 CNS
# CAKI-1 renal = tested on: CAKI-1 renal
# SK-MEL-5 melanoma = tested on: SK-MEL-5 melanoma
Structure (SMILES),TGI (MDA-MB-231 breast) [µM],TGI (PC-3 prostate),TGI (NCI-H460 lung),TGI (HCC-2998 colon),TGI (MDA-N),TGI (NCI-H522 lung),TGI (BT-549 breast),TGI (SF-268 CNS),TGI (CAKI-1 renal),TGI (SK-MEL-5 melanoma),GI50 (PC-3 prostate) [µM],GI50 (NCI-H460 lung) [µM],GI50 (MDA-N) [µM],GI50 (BT-549 breast) [µM],GI50 (SF-268 CNS) [µM],GI50 (CAKI-1 renal) [µM],GI50 (SK-MEL-5 melanoma) [µM],GI50 (HCC-2998 colon) [µM],GI50 (NCI-H522 lung) [µM]
C=CCn1c(-c2ccc([N+](=O)[O-])cc2)csc1=N,> 100,> 100 µM,> 100 µM,> 100 µM,> 100 µM,> 100 µM,> 100 µM,> 100 µM,> 100 µM,> 100 µM,–,–,–,–,–,–,–,–,–
CN1CCN(C2=CC(=O)c3c(O)ccc(O)c3C2=O)CC1,3.1,> 10 µM,3.52 µM,3.23 µM,0.325 µM,3.17 µM,3.14 µM,2.93 µM,3.08 µM,0.325 µM,–,–,–,–,–,–,–,–,–
C=C(C(=O)O[C@H]1C(=O)C2=C(C)CCC3C(=C)C(=O)O[C@@H]3C2[C@]1(C)O)C1CC[C@]2(C)CCCC(=C)[C@H]2C1 (some centres undefined),13.8,10.4 µM and 16.8 µM,10.4 µM and 11.1 µM,9.68 µM,11.6 µM and 8.45 µM,8.55 µM,14 µM and 11.1 µM,14.8 µM and 11 µM,10.2 µM and 25.3 µM,15.8 µM and 29.7 µM,4.08,0.0398,0.117,6.99,7.47,3.67,8.45,–,–
CCOC(=O)/C=C(\C(=O)OCC)n1ccc(=O)[nH]c1=O,32.6,30.7 µM,52.2 µM,38.4 µM,51.3 µM,2.12 µM,30.7 µM,42 µM,3.52 µM,> 56.7 µM,–,–,–,–,–,–,–,–,–
COc1ccc(N2NC(c3ccccc3)(c3ccccc3)C(C)C2=O)cc1 (centres undefined),> 100,> 100 µM,> 100 µM,> 100 µM,> 100 µM,> 100 µM,> 100 µM,> 100 µM,> 100 µM,> 100 µM,–,–,–,–,–,–,–,–,–
CCCCCCCCCCCCCC(=O)N(CCCCCCCCC)CC(O)C(O)C(OC1OC(CO)C(O)C(O)C1O)C(O)CO (centres undefined),37.2,54.6 µM,39.1 µM,33.7 µM,38.1 µM,44.4 µM,43.7 µM,39.4 µM,30.6 µM,34.7 µM,–,–,–,–,–,–,–,–,–
CCOC(=O)[C@@H]1ON2OC(OC3CCCC3(c3ccccc3)c3ccccc3)C(OC(C)=O)[C@H]3OC(=O)[C@@H]1C32 (some centres undefined),> 100,> 100 µM,> 100 µM,> 100 µM,> 100 µM,72.2 µM,> 100 µM,> 100 µM,> 100 µM,> 100 µM,–,–,–,–,–,–,–,–,–
Oc1cc(Br)cc2cc(Cl)cnc12,> 100,> 100 µM,32.6 µM,46.3 µM,> 100 µM,10.6 µM,47.6 µM,> 39.9 µM,85.9 µM,15.4 µM,–,–,–,–,–,–,–,–,–
Brc1ccc2c(-c3csc(-c4c[nH]c5ccccc45)n3)c[nH]c2c1,31,28.9 µM,34.4 µM,30.9 µM,39.8 µM,32.2 µM,37.4 µM,34.5 µM,33.4 µM,28.6 µM,–,–,19.2,–,–,–,–,–,–
Cn1c(O)c(C=Nc2ccccc2Cl)c(=O)n(C)c1=O,> 100,> 100 µM,32.8 µM,34.2 µM,> 100 µM,> 100 µM,> 100 µM,> 100 µM,> 100 µM,> 100 µM,–,–,–,–,–,–,–,–,–
O=C1C(=Cc2ccc(Cl)c(Cl)c2)C([O-])=C([P+](c2ccccc2)(c2ccccc2)c2ccccc2)C([O-])=C1[P+](c1ccccc1)(c1ccccc1)c1ccccc1,8.78,3.79 µM,10.9 µM,5.78 µM,3.77 µM,4.1 µM,5.19 µM,3.94 µM,6.78 µM,5.24 µM,–,–,–,–,–,–,–,–,–
O=c1c2ccccc2nc(N/N=C/c2ccccc2O)n1-c1ccccc1,> 100,> 100 µM,> 100 µM,> 100 µM,> 100 µM,74.7 µM,> 100 µM,> 100 µM,> 100 µM,> 100 µM,–,–,–,–,–,–,–,–,–
CC1=C(C)C(=O)C(C2=CC(=O)C=CC2=O)=C(C2=CC(=O)C=CC2=O)C1=O,42.5,> 100 µM,> 100 µM,> 100 µM,> 59.3 µM,64.7 µM,> 100 µM,> 100 µM,> 56.6 µM,46.2 µM,–,–,–,–,–,–,–,–,–
CC(C)(C)CC(C)(C)c1ccc(O)c(C[N+](C)(C)[O-])c1,> 100,> 100 µM,> 100 µM,> 100 µM,> 100 µM,> 100 µM,> 100 µM,> 100 µM,> 100 µM,> 100 µM,–,–,–,–,–,–,–,–,–
OC1C[C@H](c2ccccc2)C2(C(O)c3ccccc3C2O)[C@@H](c2ccccc2)C1 (some centres undefined),> 100,> 100 µM,> 100 µM,> 100 µM,> 100 µM,> 100 µM,> 100 µM,> 100 µM,> 100 µM,> 100 µM,–,–,–,–,–,–,–,–,–
Cc1cc(S(=O)(=O)/N=C(/NN)NNc2cccc(C(F)(F)F)n2)c(S)cc1Cl,> 100,50.7 µM,72.8 µM,31.2 µM,29.2 µM,60.4 µM,36.7 µM,57.4 µM,57.1 µM,37.9 µM,–,–,–,–,–,–,–,–,–
CN(C)/N=N/c1nc[nH]c1C(N)=O,> 1000,> 1000 µM,> 1000 µM,99.5 µM and > 654 µM,> 1000 µM,89.3 µM and > 779 µM,> 1000 µM,> 791 µM,71.7 µM and 539 µM,96.2 µM and > 429 µM,77.2,59.4,–,–,54.8,–,120,58.4,82
Cc1c(C(=O)O)n2cnnc2c2ccccc12,> 100,> 100 µM,> 100 µM,> 100 µM,> 100 µM,> 100 µM,> 100 µM,> 100 µM,> 100 µM,> 100 µM,–,–,–,–,–,–,–,–,–
COc1ccc(Nc2nc(N)c(C(=O)c3cccs3)s2)cc1,> 80.8,> 60.2 µM,11.1 µM,8.85 µM,> 82.4 µM,> 100 µM,> 100 µM,> 100 µM,> 100 µM,12.8 µM,–,–,–,–,–,–,–,–,–
O=[N+]([O-])C(Cl)=C/C(=C(\Cl)SCc1ccccc1)[N+](=O)[O-],59.3,48.1 µM,> 100 µM,77.6 µM,69.8 µM,46.2 µM,50.2 µM,> 100 µM,34.2 µM,47.3 µM,–,–,–,–,–,–,–,–,–
Cc1sc2nc3n(c(=O)c2c1C)N=CN(c1ccc(F)cc1)C3,> 100,> 100 µM,> 100 µM,> 100 µM,> 100 µM,> 100 µM,> 100 µM,> 100 µM,> 100 µM,> 100 µM,–,–,–,–,–,–,–,–,–
CC(=O)OC1COC(Nc2nc(N)n(C)c(=O)c2N=O)C(OC(C)=O)C1OC(C)=O (centres undefined),> 10,> 10 µM,> 10 µM,> 10 µM,> 10 µM,> 10 µM,> 10 µM,> 10 µM,> 10 µM,> 10 µM,–,–,–,–,–,–,–,–,–
C=C1C(=O)OC2CC3(C)OC3CC/C(C)=C/C(OC(C)=O)C12 (centres undefined),24.8,26 µM,31.6 µM,31.6 µM,18.7 µM,2.64 µM,22.2 µM,34.8 µM,6.24 µM,20.4 µM,–,–,–,–,–,–,–,–,–
O=C1CC2CCC(C1)S2=O (centres undefined),> 100,> 100 µM,> 100 µM,> 100 µM,> 100 µM,> 100 µM,> 100 µM,> 100 µM,> 100 µM,> 100 µM,–,–,–,–,–,–,–,–,–
